# Source: PubChem BioAssay (NCI)
# “And” between values parts separate entries of the source, which are not always exact repeats. Identical values can stand only once.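 In this assay, cells in 96-well plates receive the compound at five concentrations for 48 hours. Endpoints are linearly interpolated between the surrounding concentrations. GI50 is the concentration that inhibits growth by half. At the TGI there is no net growth.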
# How the values were obtained:
# Experiment in all cases: NCI-60 cell line screen, 48 h
# 786-0 renal = tested on: 786-0 renal
# A498 renal = tested on: A498 renal
# A549 NSCLC = tested on: A549 NSCLC
# ACHN renal = tested on: ACHN renal
# BT-549 breast = tested on: BT-549 breast
# CAKI-1 renal = tested on: CAKI-1 renal
# CCRF-CEM leukemia = tested on: CCRF-CEM leukemia
# COLO 205 colon = tested on: COLO 205 colon
# DU-145 prostate = tested on: DU-145 prostate
# EKVX NSCLC = tested on: EKVX NSCLC
# HCC-2998 colon = tested on: HCC-2998 colon
# HCT-116 colon = tested on: HCT-116 colon
# HCT-15 colon = tested on: HCT-15 colon
# HL-60(TB) leukemia = tested on: HL-60(TB) leukemia
# HOP-62 NSCLC = tested on: HOP-62 NSCLC
# HOP-92 NSCLC = tested on: HOP-92 NSCLC
# HS 578T breast = tested on: HS 578T breast
# HT29 colon = tested on: HT29 colon
# IGROV1 ovarian = tested on: IGROV1 ovarian
# K-562 leukemia = tested on: K-562 leukemia
# KM12 colon = tested on: KM12 colon
# LOX IMVI melanoma = tested on: LOX IMVI melanoma
# M14 melanoma = tested on: M14 melanoma
# MALME-3M melanoma = tested on: MALME-3M melanoma
# MCF7 breast = tested on: MCF7 breast
# MDA-MB-231 breast = tested on: MDA-MB-231 breast
# MDA-MB-435 = tested on: MDA-MB-435
# MOLT-4 leukemia = tested on: MOLT-4 leukemia
# NCI-H226 lung = tested on: NCI-H226 lung
smiles,measurement,setting,value
Nc1cc(-c2cccc(OC(F)(F)F)c2)nc2ccc(N3CCCC3)cc12,GI50,786-0 renal,65.6 nM and 78 nM and 57.3 nM
same,TGI,786-0 renal,12300 nM and > 100000 nM and > 47800 nM
same,GI50,A498 renal,27.1 nM and 23 nM and 26.6 nM
same,TGI,A498 renal,193 nM and 93.6 nM and 257 nM
same,GI50,A549 NSCLC,137 nM and 85.2 nM and 83.6 nM
same,TGI,A549 NSCLC,18600 nM and > 100000 nM
same,GI50,ACHN renal,90.3 nM and 101 nM and 107 nM
same,TGI,ACHN renal,26000 nM and > 100000 nM
same,GI50,BT-549 breast,208 nM and 182 nM and 100 nM
same,TGI,BT-549 breast,> 100000 nM
same,GI50,CAKI-1 renal,51.5 nM and 48.9 nM and 41.7 nM
same,TGI,CAKI-1 renal,> 100000 nM
same,GI50,CCRF-CEM leukemia,38.1 nM and 30.2 nM and 25.9 nM
same,TGI,CCRF-CEM leukemia,11600 nM and > 52500 nM and > 49600 nM
same,GI50,COLO 205 colon,41 nM and 39.1 nM and 35.7 nM
same,TGI,COLO 205 colon,1420 nM and 2610 nM
same,GI50,DU-145 prostate,45.8 nM and 44.6 nM and 37.7 nM
same,TGI,DU-145 prostate,13200 nM and > 100000 nM and > 57800 nM
same,GI50,EKVX NSCLC,222 nM and 362 nM and 380 nM
same,TGI,EKVX NSCLC,> 100000 nM
same,GI50,HCC-2998 colon,37 nM and 35.1 nM and 37.1 nM
same,GI50,HCT-116 colon,38.4 nM and 32.3 nM and 25.8 nM
same,GI50,HCT-15 colon,33.8 nM and 34.9 nM and 31.2 nM
same,TGI,HCT-15 colon,11500 nM and > 100000 nM
same,GI50,HL-60(TB) leukemia,30.3 nM and 24.9 nM and 24.8 nM
same,TGI,HL-60(TB) leukemia,88.8 nM and 71.2 nM and 320 nM
same,GI50,HOP-62 NSCLC,46.3 nM and 50.8 nM and 48.9 nM
same,TGI,HOP-62 NSCLC,22000 nM and > 100000 nM
same,GI50,HOP-92 NSCLC,88.8 nM and 184 nM and 86.8 nM
same,TGI,HOP-92 NSCLC,18200 nM and > 100000 nM and 74200 nM
same,GI50,HS 578T breast,51 nM and 48.4 nM and 34.7 nM
same,TGI,HS 578T breast,13200 nM and > 100000 nM
same,GI50,HT29 colon,35.5 nM and 33.8 nM and 35.4 nM
same,GI50,IGROV1 ovarian,69.8 nM and 62.3 nM and 79.3 nM
same,TGI,IGROV1 ovarian,25300 nM and > 100000 nM
same,GI50,K-562 leukemia,29.8 nM and 17.5 nM and 17.6 nM
same,GI50,KM12 colon,38.6 nM and 33.3 nM and 37.2 nM
same,TGI,KM12 colon,14900 nM and > 100000 nM
same,GI50,LOX IMVI melanoma,52.8 nM and 48.5 nM and 46 nM
same,GI50,M14 melanoma,28.5 nM and 21.5 nM and 16.8 nM
same,TGI,M14 melanoma,1600 nM and 1700 nM
same,GI50,MALME-3M melanoma,265 nM and 299 nM and 246 nM
same,GI50,MCF7 breast,37 nM and 36 nM and 35.4 nM
same,TGI,MCF7 breast,17200 nM and > 100000 nM
same,GI50,MDA-MB-231 breast,38.5 nM and 35.3 nM and 35.6 nM
same,TGI,MDA-MB-231 breast,7260 nM and > 38600 nM and 56900 nM
same,GI50,MDA-MB-435,< 10.5 nM
same,TGI,MDA-MB-435,45.5 nM and 34.6 nM and 34 nM
same,GI50,MOLT-4 leukemia,44.7 nM and 42.2 nM and 40.5 nM
same,GI50,NCI-H226 lung,238 nM and 237 nM
same,TGI,NCI-H226 lung,> 100000 nM
